Assay results from PubChem BioAssay AID1918998 (Molecular Pharmacology Branch, DTP, NCI, 2023).

System: 521955-158-R2-J5-PDC complex spheroid growth
Assay: Anticancer human tumor 521955-158-R2-J5-PDC patient-derived pancreatic carcinoma cell line growth inhibition [AhR]
Settings: for IC50: curve of first compound; for viability, T/C: stronger effect = lower value
Source text: Multicellular complex tumor spheroid response to aryl hydrocarbon receptor antagonists in combination with a variety of drugs and investigational agents in selected tumor cell lines
The current study was undertaken to assess response to aryl hydrocarbon receptor antagonists in combination with standard-of-care drugs and investigational agents in solid tumor complex spheroid models. Complex spheroids include a stromal component modeled by human endothelial cells (HUVEC) and fibroblasts modeled by human mesenchymal stem cells (MSCs). The concentration ranges selected for each drug and investigational agent were based upon clinically achievable concentrations if the clinical Cmax of the agent was known.
Compounds. The drugs and investigational agents: BAY 2416964 (NSC825713), GNF351 (NSC835774), CH-223191 (NSC835775), CPI-455 (NSC825282), aza-TdCyd (NSC777586), decitabine (NSC127716), belinostat (NSC758774), entinostat (NSC756642), pevonedistat (NSC761192), tazemetostat (NSC777109), talazoparib (NSC765396), olaparib (NSC753686), selinexor (NSC780203), nedisertib (M3814, NSC802822), bortezomib (NSC756655), venetoclax (NSC766270), doxorubicin (NSC123127), elimusertib (BAY189344, NSC800525), ceralasertib (AZD6738, NSC777638), TAK-243 (NSC785004), alisertib (NSC759677), etoposide (NSC141540), topotecan (NSC609699), eribulin (NSC707389), gemcitabine (NSC613327), carboplatin (NSC241240), cisplatin (NSC119875), and SN-38 (NSC673596) were obtained from the National Cancer Institute (NCI) Developmental Therapeutics Program Chemical Repository (32). The FDA-approved anticancer drug set is available from the Developmental Therapeutics Program at https://dtp.cancer.gov/organization/dscb/obtaining/available plates.htm. […] The stock solutions were prepared in dimethyl sulfoxide (DMSO, Sigma-Aldrich, St. Louis, MO, cat. D2650), except for the platinum compounds which were prepared in saline (Quality Biological, Gaithersburg, MD, cat. 114-055-101), at 800-fold the tested concentration and stored at -70 degrees C prior to their use. All drugs and investigational agents were tested over a range starting from a high concentration at or near the clinical Cmax and decreasing in half-log increments. If the clinical Cmax for an agent had not been determined, the highest concentration tested was 10 microM (Table 1).
Cell Culture. All cells were maintained in an incubator at 37 degrees C and 5% CO2 with 95% humidity. The PDC lines were cultured according to standard operating procedures established by the NCI PDMR (https://pdmr.cancer.gov). Briefly, all PDCs were thawed and cultured in Matrigel-coated flasks prepared with a working solution of 1X Ham's F-12 nutrient mix, without supplementation (Invitrogen, Waltham, MA, cat. 11765054), 100 U/mL penicillin-streptomycin (Invitrogen, cat. 15140122), and 2.5% Matrigel (Corning Inc., Corning, NY, cat. 354248) for the first three passages. All PDCs were cultured in complete DMEM/F-12 media containing advanced DMEM/F-12 (Invitrogen, cat. 12634028), 4.9% defined fetal bovine serum, heat inactivated (HyClone Laboratories Inc., Logan, UT, cat. SH30070.03HI), 389 ng/mL hydrocortisone (Sigma-Aldrich, cat. H4001), 9.7 ng/mL human EGF recombinant protein (Invitrogen, cat. PHG0313), 23.4 microg/mL adenine (Sigma-Aldrich, cat. A2786), 97.3 U/mL penicillin-streptomycin (Invitrogen, cat. 15140122), 1.9 mM L-glutamine (Invitrogen, cat. 25030081), and 9.7 microM Y-27632 dihydrochloride (Tocris Bioscience, Bristol, United Kingdom, cat. 1254). The PDCs were cultured in complete DMEM/F12 media without 10 microM Y-27632 dihydrochloride for at least two passages prior to the screen. The established cell lines NCI-H1341 and […] were cultured in DMEM/F-12, HEPES (Invitrogen, cat. 11330032), 5% defined fetal bovine serum (HyClone Laboratories Inc., cat. SH30070.03), ITS premix universal culture supplement [insulin (5 microg/mL), transferrin (5 microg/mL), and selenious acid (5 ng/mL)] […]

[1] = second compound 0.1 µM, first compound 0.00316 µM
[2] = second compound 0.1 µM, first compound 0.01 µM
[3] = second compound 0.1 µM, first compound 0.0316 µM
[4] = second compound 0.1 µM, first compound 0.1 µM
[5] = second compound 0.316 µM, first compound 0.00316 µM
[6] = second compound 0.316 µM, first compound 0.01 µM
[7] = second compound 0.316 µM, first compound 0.0316 µM
[8] = second compound 0.316 µM, first compound 0.1 µM
[9] = second compound 1 µM, first compound 0.00316 µM
[10] = second compound 1 µM, first compound 0.01 µM
[11] = second compound 1 µM, first compound 0.0316 µM
[12] = second compound 1 µM, first compound 0.1 µM
[13] = second compound 3.16 µM, first compound 0.00316 µM
[14] = second compound 3.16 µM, first compound 0.01 µM
[15] = second compound 3.16 µM, first compound 0.0316 µM
[16] = second compound 3.16 µM, first compound 0.1 µM
[17] = second compound 10 µM, first compound 0.00316 µM
[18] = second compound 10 µM, first compound 0.01 µM
[19] = second compound 10 µM, first compound 0.0316 µM
[20] = second compound 10 µM, first compound 0.1 µM
[21] = second compound 0.1 µM, first compound 0.316 µM
[22] = second compound 0.1 µM, first compound 1 µM
[23] = second compound 0.1 µM, first compound 3.16 µM
[24] = second compound 0.1 µM, first compound 10 µM
[25] = second compound 0.316 µM, first compound 0.316 µM
[26] = second compound 0.316 µM, first compound 1 µM
[27] = second compound 0.316 µM, first compound 3.16 µM
[28] = second compound 0.316 µM, first compound 10 µM
[29] = second compound 1 µM, first compound 0.316 µM
[30] = second compound 1 µM, first compound 1 µM
[31] = second compound 1 µM, first compound 3.16 µM
[32] = second compound 1 µM, first compound 10 µM
[33] = second compound 3.16 µM, first compound 0.316 µM
[34] = second compound 3.16 µM, first compound 1 µM
[35] = second compound 3.16 µM, first compound 3.16 µM
[36] = second compound 3.16 µM, first compound 10 µM
[37] = second compound 10 µM, first compound 0.316 µM
[38] = second compound 10 µM, first compound 1 µM
[39] = second compound 10 µM, first compound 3.16 µM
[40] = second compound 10 µM, first compound 10 µM
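Wherever viability, T/C is given: spheroids mix tumor cells with HUVEC endothelium and human MSC stroma; luminescence taken as viability surrogate after a week of drug exposure.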

Compound	IC50 (second compound 0.1 µM) [nM]	IC50 (second compound 0.316 µM) [nM]	IC50 (second compound 1 µM) [nM]	IC50 (second compound 3.16 µM) [nM]	IC50 (second compound 10 µM) [nM]	viability, T/C [3] [%]	viability, T/C [4] [%]	viability, T/C [7] [%]	viability, T/C [8] [%]	viability, T/C [11] [%]	viability, T/C [12] [%]	viability, T/C [15] [%]	viability, T/C [16] [%]	viability, T/C [19] [%]	viability, T/C [20] [%]	viability, T/C [21] [%]	viability, T/C [22] [%]	viability, T/C [25] [%]	viability, T/C [26] [%]	viability, T/C [29] [%]	also measured
CC[C@@]1(O)C(=O)OCc2c1cc1n(c2=O)Cc2cc3c(CN(C)C)c(O)ccc3nc2-1 + CC(CO)NC(=O)c1cc(-c2ccc(Cl)cc2)nn(-c2cnn(C)c2)c1=O	32.3	36.7	28	22	19.9	51.8	16	57.4	13.3	46.1	20.1	38.3	19.2	35.3	17.9						viability, T/C (second compound 0.1 µM, first compound 0.000316 µM): 99.8%; viability, T/C (second compound 0.1 µM, first compound 0.001 µM): 91.6%; viability, T/C [1]: 110%; viability, T/C [2]: 82.5%; viability, T/C (second compound 0.316 µM, first compound 0.000316 µM): 112%; viability, T/C (second compound 0.316 µM, first compound 0.001 µM): 109%; viability, T/C [5]: 89.8%; viability, T/C [6]: 82.5%; viability, T/C (second compound 1 µM, first compound 0.000316 µM): 93%; viability, T/C (second compound 1 µM, first compound 0.001 µM): 104%; viability, T/C [9]: 106%; viability, T/C [10]: 86.5%; viability, T/C (second compound 3.16 µM, first compound 0.000316 µM): 99.2%; viability, T/C (second compound 3.16 µM, first compound 0.001 µM): 102%; viability, T/C [13]: 91.8%; viability, T/C [14]: 75.4%; viability, T/C (second compound 10 µM, first compound 0.000316 µM): 76.5%; viability, T/C (second compound 10 µM, first compound 0.001 µM): 86.3%; viability, T/C [17]: 85.6%; viability, T/C [18]: 71.6%
COc1cc(C2c3cc4c(cc3C(OC3OC5COC(C)OC5C(O)C3O)C3COC(=O)C23)OCO4)cc(OC)c1O (stereo not given) + CC(CO)NC(=O)c1cc(-c2ccc(Cl)cc2)nn(-c2cnn(C)c2)c1=O	1060	1160	916	698	422	85	78	92.3	102	98	98.3	93.5	87.5	76.3	71.4	91.8	51.4	87.5	53.4	95.7	viability, T/C [23]: 29.3%; viability, T/C [24]: 17%; viability, T/C [27]: 25.5%; viability, T/C [28]: 16.6%; viability, T/C [30]: 46.1%; viability, T/C [31]: 24.5%; viability, T/C [32]: 20.6%; viability, T/C [33]: 91.9%; viability, T/C [34]: 31.4%; viability, T/C [35]: 23.6%; viability, T/C [36]: 22.8%; viability, T/C [37]: 55.3%; viability, T/C [38]: 33.3%; viability, T/C [39]: 20.4%; viability, T/C [40]: 14.2%
COc1cccc2c1C(=O)c1c(O)c3c(c(O)c1C2=O)CC(O)(C(=O)CO)CC3OC1CC(N)C(O)C(C)O1 (stereo not given) + CC(CO)NC(=O)c1cc(-c2ccc(Cl)cc2)nn(-c2cnn(C)c2)c1=O	< 31.6	50.1	53.3	< 31.6	38.7	49.1	45.1	54.6	42.6	56.4	41.7	50.7	41.8	52.9	37	28	2.42	24.5	2.21	24.1	viability, T/C [23]: 7.75%; viability, T/C [24]: 13.9%; viability, T/C [27]: 5.07%; viability, T/C [28]: 13.4%; viability, T/C [30]: 9.29%; viability, T/C [31]: 2.9%; viability, T/C [32]: 14.6%; viability, T/C [33]: 25.8%; viability, T/C [34]: 8.77%; viability, T/C [35]: 7.63%; viability, T/C [36]: 14%; viability, T/C [37]: 18.7%; viability, T/C [38]: 6.31%; viability, T/C [39]: 6.29%; viability, T/C [40]: 13.8%
Nc1ncn(C2CC(O)C(CO)O2)c(=O)n1 (stereo not given) + CC(CO)NC(=O)c1cc(-c2ccc(Cl)cc2)nn(-c2cnn(C)c2)c1=O	621	652	> 1000	803	> 1000	106	70.9	107	70.8	120	78.6	87.3	87.1	74.1	80.2	67.9	40.1	68.1	41.2	67.8	viability, T/C [1]: 113%; viability, T/C [2]: 105%; viability, T/C [5]: 97.2%; viability, T/C [6]: 107%; viability, T/C [9]: 111%; viability, T/C [10]: 85.7%; viability, T/C [30]: 50.8%; viability, T/C [13]: 98.2%; viability, T/C [14]: 95.2%; viability, T/C [33]: 64.7%; viability, T/C [34]: 46.4%; viability, T/C [17]: 83.3%; viability, T/C [18]: 87%; viability, T/C [37]: 62.4%; viability, T/C [38]: 51%
